Entries after “also recorded” stand apart in the source; their conditions may differ.

For the first test, the system named is protein kinase. Put plainly: HTS ATP-utilizing enzyme assay, off-chip mobility-shift format (Caliper HTS 250). It is filed as biochemical, human.
Details: not given
The method, boiled down:
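Kinase reactions ran 2.5 h at 20 to 22 °C with test compound at 10 μM, in a HEPES pH 7.5 master buffer containing Triton X-100 and BSA. Peptide substrate and phosphorylated product separated by mobility shift; inhibition normalized to DMSO (0%) and EDTA (100%) controls, with three-sigma thresholds for hits.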
For the compound `COc1ccccc1-n1c(SCCC(=O)Nc2cc(NC(=O)c3ccco3)ccc2C)nnc1-c1ccccc1`, the “protein kinase against which the compound exhibits inhibitory activity (Table 3)” value is given as “MAPKAPK-3”.

The same test, now with this note: kinase(s) for which the compound exhibits protein kinase inhibitory activity; test compound 10 μM; active = greater than three-sigma from the mean activity of inactive compounds.
With `COc1ccc(-n2c(SCC(=O)O)nnc2-c2ccc(NS(=O)(=O)c3ccc(C)cc3)cc2)cc1`, the Kinase entry is “CDK2-cyclinA and CDK2-cyclinE and CDK1”.
On the same count and under the same terms, for `O=C(CSc1nnc(-c2ccccc2O)n1Cc1ccco1)OCc1ccccc1` the value was “GSK3-α”.
Take `CCOC(=O)CN(C(=O)CSc1nnc(-c2ccncc2)n1CCCN(C)C)c1cccc([N+](=O)[O-])c1`: the Kinase entry is reported as “CDK1”.
With `CCn1c(CNc2ccc(OC)cc2)nnc1SCC(=O)Nc1ccccc1-c1ccccc1`, the Kinase result is “PDGFRR-α and FYN and GSK3-β”.
On the same count and under the same terms, for `O=C(CSc1nnc(-c2ccncc2)n1Cc1ccco1)NCc1ccco1` the value was “FYN”.
On the same count and under the same terms, for `C=CCn1c(S)nnc1-c1cc(OC)c(OC)c(OC)c1` [4-allyl-5-(3,4,5-trimethoxyphenyl)-4H-1,2,4-triazole-3-thiol] the value was “GSK3-β; also recorded: GSK3-α”; for `COc1ccc(-n2c(CNc3ccc(C)cc3)nnc2SCC(=O)O)cc1`, “PDGFRR-α”.
The same measure, in the same setting: with `COc1cccc(NC(=O)CSc2nnc(COc3cccc(C)c3)n2C)c1` the entry was “GSK3-α; also recorded: CDK2-cyclinE”; with `Cc1cccc(C)c1NC(=O)C(C)Sc1nnc(CNc2ccc(Cl)cc2)n1-c1ccccc1` (centres unmarked), “CDK2-cyclinE”.
With `COCCCn1c(C)nnc1SCC(=O)NCc1ccco1`, the Kinase result was “FYN”.
The same measure, in the same setting: with `C=CCn1c(SCC(=O)O)nnc1-c1ccc([N+](=O)[O-])cc1` [2-(4-allyl-5-(4-nitrophenyl)-4H-1,2,4-triazol-3-ylthio)acetic acid] the entry was “GSK3-β”.
With `Cc1ccc(NCc2nnc(S)n2-c2cccc(Cl)c2)cc1` [5-((p-toluidino)methyl)-4-(3-chlorophenyl)-4H-1,2,4-triazole-3-thiol], the Kinase result is “CDK2-cyclinA; also recorded: GSK3-α”.
On the same count and under the same terms, with `COc1ccc(NCc2nnc(S)n2-c2cccc(Cl)c2)cc1` the entry was “PDGFRR-α and AURORA-A and FYN”.

The test is the same for the next values; noted with them: test compound 10 μM; active = activity greater than three-sigma from the mean of the predominately inactive population for that enzyme.
For the compound `O=C(O)c1ccc(CSc2nnc(-c3ccc(OC(F)(F)F)cc3)[nH]2)cc1`, the “protein kinase against which the compound exhibits inhibitory activity (Table 3)” value is recorded as “FLT-3; also recorded: AURORA-A; also recorded: DYRK2”.
The same measure, in the same setting: for `CCCCSc1nnc(COc2ccc(Cl)cc2)[nH]1` [3-(butylthio)-5-((4-chlorophenoxy)methyl)-4H-1,2,4-triazole] the value was “FLT-3”; for `CCC(c1ccccc1)c1nnc(SCc2ccc(C(=O)O)cc2)[nH]1` (centres unmarked) [4-((5-(1-phenylpropyl)-4H-1,2,4-triazol-3-ylthio)methyl)benzoic acid], “AURORA-A”.
On the same count and under the same terms, for `CCN(CC)S(=O)(=O)c1ccc(-c2nnc(SCC(=O)N3c4ccccc4CCc4ccccc43)n2CC)cc1` the value was “DAPK1”.
For the compound `Fc1ccc(CSc2nnc(-c3cccs3)[nH]2)cc1` [3-(4-fluorobenzylthio)-5-(thiophen-2-yl)-4H-1,2,4-triazole], the “protein kinase against which the compound exhibits inhibitory activity (Table 3)” value was “AURORA-A; also recorded: FLT-3; also recorded: DYRK2”.
The same measure, in the same setting: with `COc1ccc(-c2nnc(SCc3ccc(S(C)(=O)=O)cc3)[nH]2)cc1` [3-(4-methoxyphenyl)-5-(4-(methylsulfonyl)benzylthio)-4H-1,2,4-triazole] the entry was “FLT-3”; with `CCSc1nnc(-c2ccc([N+](=O)[O-])cc2)n1C` [3-(ethylthio)-4-methyl-5-(4-nitrophenyl)-4H-1,2,4-triazole], “PDGFRR-α and FYN”; with `FC(F)(F)c1cccc(-c2nnc(SCc3cccc(I)c3)[nH]2)c1` [3-(3-iodobenzylthio)-5-(3-(trifluoromethyl)phenyl)-4H-1,2,4-triazole], “CHEK2”.
Same read-out and setting: for `OCC(O)CSc1nnc(-c2ccc(OC(F)(F)F)cc2)[nH]1` (centres unmarked) the value was “AURORA-A; also recorded: FLT-3; also recorded: DYRK2”.

The values above are taken from patent publication US20050288347A1, “Certain triazole-based compounds, compositions, and uses thereof” (priority 2004, published 2005).
